This note sets out measurements from patent US11384159B2, “B-1,3-1,6-glucan powder, glucan-containing composition, method for producing B-1,3-1,6-glucan powder, inclusion complex, method for producing inclusion complex, and method for recovering guest molecule” (MITSUBISHI GAS CHEMICAL COMPANY, INC., priority 2017, dated 2022).

This data set in a line: Inclusion of poorly water-soluble substance (curcumin): absorbance of supernatant at 405 nm. In kind it is physicochemical. As to conditions: 0.002 mol/L monomer glucose; curcumin in acetone, 1 vol. % acetone; 3 hours, 25° C.; after centrifugation. The source says: In order to examine the change in characteristics of centrifugally regenerated β-1,3-1,6-glucan in association with powder formation, the envelopment and solubilizing capacity of the centrifugally regenerated β-1,3-1,6-glucan with respect to poorly water-soluble substances were compared.
β-1,3-1,6-glucan (lyophilized) derived from Aureobasidium pullulans was used as the centrifugally regenerated β-1,3-1,6-glucan powder, and curcumin (available from Tokyo Chemical Industry Co., Ltd., catalog number: 00435) was used as the poorly water-soluble substance.
The centrifugally regenerated β-1,3-1,6-glucan powder was dissolved in distilled water at a concentration of 1.0% by mass, and the glucose concentration was calculated through the phenol-sulfuric acid method, after which the solution was diluted and used. […]
Each centrifugally regenerated β-1,3-1,6-glucan solution having a monomer glucose concentration adjusted to 0.002 mol/L was prepared at an amount of 1 mL each, and an acetone solution of curcumin adjusted to a concentration of 0.05 mol/L was added such that the final concentration of acetone was 1 vol. %. […] Centrifugation (KUBOTA3740 (available from Kubota Manufacturing Co., Ltd.), 14000 G, 5 minutes) was carried out, the insoluble matter was removed, and the absorbance of the supernatant at a wavelength of 405 nm was compared. […]

Molecules are shown by their SMILES.

As to `COc1cc(/C=C/C(=O)CC(=O)/C=C/c2ccc(O)c(OC)c2)ccc1O` [curcumin], the “absorbance (wavelength of 405 nm) originating from the curcumin in the supernatant” value is reported as 0.045.
